We go through one compound from US12128040B2, “Selective estrogen receptor degraders” (Eli Lilly and Company, priority 2018, dated 2024).

One assay relates to MCF7 xenograft tumor. Nature of the assay: In vivo tumor growth inhibition study in MCF7 xenograft tumor implanted in mice. To be noted: MCF7 breast cancer xenograft, 30 mg/kg QD, oral gavage. The protocol:
The purpose of the following xenograft tumor growth inhibition assay is to measure reduction in tumor volume in response to test compound administration.
Twenty-four hours prior to implantation of MCF7 cells, implant estrogen pellets (0.18 mg/pellet, […], 90-day release, Innovative Research) subcutaneously.

Another assay has as its target T1, ERα (wild type) (Homo sapiens, UniProt P03372).
T1 sequence (P03372 1-595): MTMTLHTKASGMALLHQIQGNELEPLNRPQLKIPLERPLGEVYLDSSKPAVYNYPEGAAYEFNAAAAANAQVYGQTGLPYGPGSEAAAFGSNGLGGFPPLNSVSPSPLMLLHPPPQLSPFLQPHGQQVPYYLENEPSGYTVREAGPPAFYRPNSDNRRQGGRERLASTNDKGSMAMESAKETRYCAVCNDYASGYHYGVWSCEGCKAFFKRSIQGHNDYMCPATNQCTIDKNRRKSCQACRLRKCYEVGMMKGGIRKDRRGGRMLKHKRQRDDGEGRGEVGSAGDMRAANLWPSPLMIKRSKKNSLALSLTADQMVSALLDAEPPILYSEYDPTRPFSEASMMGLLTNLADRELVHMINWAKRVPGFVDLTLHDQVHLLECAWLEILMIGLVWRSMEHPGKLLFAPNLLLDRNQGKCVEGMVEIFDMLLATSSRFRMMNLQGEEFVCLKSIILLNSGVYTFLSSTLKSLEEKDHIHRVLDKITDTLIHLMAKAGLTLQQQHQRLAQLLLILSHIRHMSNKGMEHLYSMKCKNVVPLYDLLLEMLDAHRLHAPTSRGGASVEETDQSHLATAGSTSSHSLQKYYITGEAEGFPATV
Nature of the assay: ERα (wild type) competition binding assay. To be noted: recombinant ERα wild type, 3H-estradiol competition, n=3. The protocol:
(§1) The purpose of the following ER competition binding assays is to determine the binding affinity of a test compound against ERα (wild type) and ERα (Y537S mutant) See Fanning et al., “Estrogen receptor alpha somatic mutations Y537S and D538G confer breast cancer endocrine resistance by stabilizing the activating function-2 binding conformation,” eLife 2016; 5:e12792.
(§2) Run the competition binding assay in a buffer containing 50 mM HEPES, pH 7.5, 1.5 mM EDTA, 150 mM NaCl, 10% glycerol, 1 mg/mL ovalbumin, and 5 mM DTT, using 0.025 µCi per well ^3H-estradiol (118 Ci/mmol, 1 mCi/mL), 7.2 ng/well ERα (wild type), or 7.2 ng/well ERα (Y537S mutant). Add the test compound at 10 different concentrations ranging from 10,000 nM to 0.5 nM, and determine nonspecific binding in the presence of 1 μM of […]. Incubate the binding reaction (140 μL) for 4 hours at room temperature, and then add cold dextran-charcoal buffer (70 μL) (containing per 50 mL of assay buffer, 0.75 g of charcoal and 0.25 g of dextran) to each reaction. Mix the plates for 8 minutes on an orbital shaker at 4° C. and then centrifuge at 3000 rpm at 4° C. for 10 minutes. […] After an incubation of 2.5 hours, read the plates in a Wallac Microbeta counter. […]

The target of the next assay is T2, ERα (Y537S mutant) (Homo sapiens, UniProt P03372, Y537S).
T2 sequence (P03372 1-595 Y537S): T1 sequence (P03372 1-595) with Y537S
Briefly: ERα (Y537S mutant) competition binding assay. To be noted: 3H-estradiol competition, n=3. The protocol: as §1, §2

Residue numbers refer to the chain shown, from its start.

As for `O=C(c1ccc(OCCN2CC(CF)C2)cc1)c1c(-c2ccc(C(F)(F)F)cc2F)cnc2cc(O)ccc12` [Example 1, (4-{2-[3-(Fluoromethyl)azetidin-1-yl]ethoxy}phenyl){3-[2-fluoro-4-(trifluoromethyl)phenyl]-7-hydroxyquinolin-4-yl}methanone], in the assay with MCF7 xenograft tumor, the “Delta T/C % or Regression %” value was −36%. The Ki worked out at 3.78 ± 0.74 nM at ERα (wild type) and 21.2 ± 2.12 nM at ERα (Y537S mutant).
